The source of these data is PMC1399460, “Synthesis and glycosidase inhibitory activity of new hexa-substituted C8-glycomimetics” (Beilstein Journal of Organic Chemistry, 2005).

Holding throughout (experiment): glycosidase inhibition assay
Settings in all cases: read-out: % inhibition at 1 mM

For experiment [1], the target named is T1, α-D-mannosidase from Jack beans (Canavalia ensiformis, UniProt C0HJB3).
T1 construct: commercial native enzyme preparation
T1 sequence (C0HJB3 1-562): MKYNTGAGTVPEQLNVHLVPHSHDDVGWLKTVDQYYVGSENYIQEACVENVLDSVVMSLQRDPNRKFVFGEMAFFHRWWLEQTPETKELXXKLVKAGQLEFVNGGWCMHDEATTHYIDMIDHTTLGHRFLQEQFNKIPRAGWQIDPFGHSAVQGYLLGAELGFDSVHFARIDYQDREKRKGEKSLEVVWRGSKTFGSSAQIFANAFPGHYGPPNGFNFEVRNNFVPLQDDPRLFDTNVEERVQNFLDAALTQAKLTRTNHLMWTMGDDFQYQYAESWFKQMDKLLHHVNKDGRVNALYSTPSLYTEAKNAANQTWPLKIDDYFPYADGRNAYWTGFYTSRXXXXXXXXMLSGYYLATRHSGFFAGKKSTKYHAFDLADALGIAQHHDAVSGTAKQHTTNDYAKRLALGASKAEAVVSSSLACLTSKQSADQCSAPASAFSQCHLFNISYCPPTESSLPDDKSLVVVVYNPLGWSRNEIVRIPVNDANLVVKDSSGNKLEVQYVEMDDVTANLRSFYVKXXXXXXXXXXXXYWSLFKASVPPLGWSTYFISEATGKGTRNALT
T1 sequence (C0HJB3 563-981): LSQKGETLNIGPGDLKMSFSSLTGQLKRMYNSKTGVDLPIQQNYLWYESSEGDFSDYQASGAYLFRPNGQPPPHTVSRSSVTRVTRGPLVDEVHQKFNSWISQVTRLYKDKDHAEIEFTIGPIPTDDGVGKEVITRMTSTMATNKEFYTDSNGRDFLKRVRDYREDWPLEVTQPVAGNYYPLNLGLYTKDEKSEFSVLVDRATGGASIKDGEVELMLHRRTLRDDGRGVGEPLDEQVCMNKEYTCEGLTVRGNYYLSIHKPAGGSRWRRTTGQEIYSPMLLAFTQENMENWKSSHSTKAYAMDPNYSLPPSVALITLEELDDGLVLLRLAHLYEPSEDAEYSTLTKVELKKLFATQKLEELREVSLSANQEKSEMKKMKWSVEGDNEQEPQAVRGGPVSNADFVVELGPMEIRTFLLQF
The format is biochemical. An excerpt:
glycosidase inhibition assay on α-D-mannosidase from Jack beans

The target of experiment [2] is T2, amyloglucosidase from Aspergillus niger (Aspergillus niger, UniProt P69328).
T2 construct: gene GLAA; commercial native enzyme preparation
The format is biochemical. An excerpt: glycosidase inhibition assay on amyloglucosidase from Aspergillus niger

Experiment [3] deals with T3, α-D-glucosidase from Bacillus stearothermophilus (Geobacillus stearothermophilus, UniProt A0ACH1E9U3).
T3 construct: gene QSJ10_02665
T3 sequence (A0ACH1E9U3 1-555): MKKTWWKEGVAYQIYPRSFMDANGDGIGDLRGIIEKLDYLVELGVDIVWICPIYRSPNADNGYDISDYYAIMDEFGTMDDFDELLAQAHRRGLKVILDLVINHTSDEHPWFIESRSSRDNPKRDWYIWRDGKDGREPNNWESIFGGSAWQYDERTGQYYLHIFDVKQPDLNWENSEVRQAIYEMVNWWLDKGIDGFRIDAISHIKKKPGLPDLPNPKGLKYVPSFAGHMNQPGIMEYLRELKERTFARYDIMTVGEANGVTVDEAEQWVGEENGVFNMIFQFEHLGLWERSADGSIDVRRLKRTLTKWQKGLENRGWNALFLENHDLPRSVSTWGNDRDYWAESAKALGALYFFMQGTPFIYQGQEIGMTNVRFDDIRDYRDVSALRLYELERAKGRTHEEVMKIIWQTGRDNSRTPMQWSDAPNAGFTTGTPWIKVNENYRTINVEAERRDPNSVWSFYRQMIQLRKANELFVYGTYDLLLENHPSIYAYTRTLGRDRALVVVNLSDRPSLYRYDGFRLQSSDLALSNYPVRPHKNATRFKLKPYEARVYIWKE
Excerpt: glycosidase inhibition assay on α-D-glucosidase from Bacillus stearothermophilus

Experiment [4] deals with T4, α-L-fucosidase from bovine kidney (Bos taurus, UniProt Q2KIM0).
T4 construct: gene FUCA1; commercial native enzyme from kidney
T4 sequence (Q2KIM0 23-468): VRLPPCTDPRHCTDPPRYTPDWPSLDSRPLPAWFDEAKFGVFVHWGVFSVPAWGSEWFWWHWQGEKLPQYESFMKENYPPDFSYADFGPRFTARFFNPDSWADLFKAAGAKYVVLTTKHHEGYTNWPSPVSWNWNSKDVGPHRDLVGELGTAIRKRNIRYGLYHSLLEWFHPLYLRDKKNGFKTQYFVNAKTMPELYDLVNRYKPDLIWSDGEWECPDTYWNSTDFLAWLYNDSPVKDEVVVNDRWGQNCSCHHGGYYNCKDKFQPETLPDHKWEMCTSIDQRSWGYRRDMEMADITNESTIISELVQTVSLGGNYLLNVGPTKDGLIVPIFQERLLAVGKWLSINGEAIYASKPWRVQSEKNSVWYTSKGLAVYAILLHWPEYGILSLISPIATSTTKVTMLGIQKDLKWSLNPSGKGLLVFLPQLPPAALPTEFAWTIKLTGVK
The format is biochemical. The text has this: glycosidase inhibition assay on α-L-fucosidase from bovine kidney

T2 sequence (P69328 25-640): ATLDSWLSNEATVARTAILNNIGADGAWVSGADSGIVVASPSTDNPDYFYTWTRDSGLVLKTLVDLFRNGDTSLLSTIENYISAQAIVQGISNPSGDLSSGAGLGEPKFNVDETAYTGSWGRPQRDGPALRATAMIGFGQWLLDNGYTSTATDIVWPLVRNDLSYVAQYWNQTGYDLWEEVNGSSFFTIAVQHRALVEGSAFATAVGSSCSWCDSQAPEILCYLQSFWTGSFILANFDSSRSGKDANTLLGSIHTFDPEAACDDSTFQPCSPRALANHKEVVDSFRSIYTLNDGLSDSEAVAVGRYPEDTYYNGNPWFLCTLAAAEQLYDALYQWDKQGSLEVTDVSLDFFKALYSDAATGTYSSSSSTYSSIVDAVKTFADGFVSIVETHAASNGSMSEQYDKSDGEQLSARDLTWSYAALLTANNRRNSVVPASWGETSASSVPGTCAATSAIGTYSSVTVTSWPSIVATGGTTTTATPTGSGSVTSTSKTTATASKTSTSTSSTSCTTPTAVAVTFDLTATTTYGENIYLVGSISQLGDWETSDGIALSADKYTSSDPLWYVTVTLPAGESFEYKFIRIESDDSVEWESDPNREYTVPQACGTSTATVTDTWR

As usually defined, the inhibition is the drop in the measured response relative to a control, in per cent. With `N[C@@H]1C[C@@H](O)[C@@H](O)[C@H](O)[C@H](O)C[C@H]1O` [compound 16, aminocyclitol 16], in experiment [1], the inhibition at 1000 µM worked out at 8%. Regarding `N[C@H]1C[C@H](O)[C@@H](O)[C@H](O)[C@@H](O)C[C@@H]1O` [compound 15, aminocyclitol 15], the inhibition at 1000 µM in experiment [2] came out at 28%; in experiment [1] it was 16%.

In the case of `OCC(CO)N[C@@H]1C[C@@H](O)[C@@H](O)[C@H](O)[C@H](O)C[C@H]1O` [compound 20, aminocyclitol 20], the inhibition at 1000 µM in experiment [2] stood at 29%; in experiment [3], 6%; in experiment [1], 8%. On to `O[C@H]1[C@H](O)[C@H](O)C[C@H](O)[C@H](O)C[C@H]1O` [compound 6, C8 hexa-substituted carbasugar 6], for which the inhibition at 1000 µM in experiment [4] is 13%. As to `OCC(CO)N[C@H]1C[C@H](O)[C@@H](O)[C@H](O)[C@@H](O)C[C@@H]1O` [compound 19, C8-voglibose mimetic 19], the inhibition at 1000 µM in experiment [2] came out at 27%; in experiment [1], 10%. Consider `O[C@H]1[C@H](O)[C@@H](O)C[C@H](O)[C@H](O)C[C@@H]1O` [compound 5, C8 hexa-substituted carbasugar 5], for which the inhibition at 1000 µM stood at 14% in experiment [4] and 9% in experiment [3].
